Data: patent US7906655B2, “Hepatitis C virus inhibitors” (Bristol-Myers Squibb Company, priority 2008, dated 2011)

system: HCV 1b genotype; assay: HCV Replicon assay (HCV-neo replicon cells, wild-type); type: cell-based; conditions: HCV 1b genotype replicon; class symbols
Procedure, shortened: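 Inhibition was measured in HCV-neo (genotype 1b) replicon cells. Some assay versions used luciferase reporters.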

**Q.** `COC(=O)NC(C(=O)N1[C@@H]2C[C@@H]2C[C@H]1c1nc2cc(Oc3cccc(-c4ccc5[nH]c([C@@H]6C[C@H]7C[C@H]7N6C(=O)C(NC(=O)OC)c6ccccc6)nc5c4)c3)ccc2[nH]1)c1ccccc1` (stereo partly drawn) [Example V4, methyl (2-((1R,3S,5R)-3-(5-(3-((2-((1R,3S,5R)-2-(((methoxycarbonyl)amino)(phenyl)acetyl)-2-azabicyclo[3.1.0]hex-3-yl)-1H-benzimidazol-5-yl)oxy)phenyl)-1H-benzimidazol-2-yl)-2-azabicyclo[3.1.0]hex-2-yl)-2-oxo-1-phenylethyl) carbamate] was tested. Which EC50 did it give?
**A.** Its EC50 is under 4.57 nM.

**Q.** For `COC(=O)N[C@H](C(=O)N1CCC[C@H]1c1nc2cc(-c3cnc(-c4ccc5[nH]c([C@@H]6CCCN6C(=O)[C@@H](NC(=O)OC)C(C)C)nc5c4)o3)ccc2[nH]1)C(C)C` [Example J19, methyl ((1S)-1-(((2S)-2-(5-(2-(2-((2S)-1-((2S)-2-((methoxy-carbonyl)amino)-3-methyl-butanoyl)-2-pyrrolidinyl)-1H-benzimidazol-5-yl)-1,3-oxazol-5-yl)-1H-benzimidazol-2-yl)-1-pyrrolidinyl)carbonyl)-2-methylpropyl) carbamate], which EC50 is on record?
**A.** The EC50 was under 4.57 nM.

**Q.** With `O=C(C(=O)N1CCC[C@H]1c1nc2cc(C#Cc3ccc4[nH]c([C@@H]5CCCN5C(=O)C(=O)c5ccccc5)nc4c3)ccc2[nH]1)c1ccccc1` [Example M26.3, 2.2′-(1,2-ethynediylbis(1H-benzimidazole-5,2-diyl(2S)-2,1-pyrrolidinediyl))bis(2-oxo-1-phenylethanone)] as the compound, how does the EC50 read?
**A.** Its EC50 is 100 to 999 nM.

**Q.** `C[C@@H](c1nc2cc(C#Cc3ccc4nc([C@H](C)N(C)C(=O)[C@@H](c5ccccc5)N(C)C)[nH]c4c3)ccc2[nH]1)N(C)C(=O)[C@@H](c1ccccc1)N(C)C` [Example M35] was tested. Which EC50 did it give?
**A.** Its EC50 is under 4.57 nM.

same assay, conditions: Hepatitis C virus, HCV 1b genotype replicon; class symbols

**Q.** How did the EC50 turn out when `CC(C)C(=O)N1CCC[C@H]1c1nc2ccc(C#Cc3ccc4[nH]c([C@@H]5CCCN5C(=O)[C@H]5CCCO5)nc4c3)cc2[nH]1` [Example M54.8, 5-((2-((2S)-1-isobutyryl-2-pyrrolidinyl)-1H-benzimidazol-6-yl)ethynyl)-2-((2S)-1-((2R)-tetrahydro-2-furanylcarbonyl)-2-pyrrolidinyl)-1H-benzimidazole] was run?
**A.** Its EC50 is 4.57 to 99 nM.

**Q.** With `O=C(CC1CC1)N1CCC[C@H]1c1nc2cc(C#Cc3ccc4nc([C@@H]5CCCN5C(=O)CC5CC5)[nH]c4c3)ccc2[nH]1` [Example M8, 2-((2S)-1-(cyclopropylacetyl)-2-pyrrolidinyl)-5-((2-((2S)-1-(cyclopropylacetyl)-2-pyrrolidinyl)-1H-benzimidazol-6-yl)ethynyl)-1H-benzimidazole] as the compound, how does the EC50 read?
**A.** The EC50 was 4.57 to 99 nM.

**Q.** `O=C([C@H](O)c1ccccc1)N1CCC[C@H]1c1nc2cc(-c3cnc(-c4cccc5[nH]c([C@@H]6CCCN6C(=O)[C@H](O)c6ccccc6)nc45)o3)ccc2[nH]1` [Example J9, (1R)-2-((2S)-2-(4-(5-(2-((2S)-1-((2R)-2-hydroxy-2-phenylacetyl)-2-pyrrolidinyl)-1H-benzimidazol-5-yl)-1,3-oxazol-2-yl)-1H-benzimidazol-2-yl)-1-pyrrolidinyl)-2-oxo-1-phenylethanol] was tested. Which EC50 did it give?
**A.** Its EC50 is 4.57 to 99 nM.

**Q.** How did the EC50 turn out when `CC(=O)N1CCC[C@H]1c1nc2ccc(C#Cc3ccc4[nH]c([C@@H]5CCCN5C(=O)Cc5cccnc5)nc4c3)cc2[nH]1` [Example M54.21, 5-((2-((2S)-1-acetyl-2-pyrrolidinyl)-1H-benzimidazol-6-yl)ethynyl)-2-((2S)-1-(3-pyridinylacetyl)-2-pyrrolidinyl)-1H-benzimidazole] was run?
**A.** Its EC50 is 4.57 to 99 nM.

**Q.** Which EC50 does the source give for `COC(=O)N[C@@H](C(=O)N1CCC[C@H]1c1nc2cc(-c3cnc(-c4cccc5[nH]c([C@@H]6CCCN6C(=O)[C@H](NC(=O)OC)c6ccccc6)nc45)o3)ccc2[nH]1)c1ccccc1` [Example J6, Methyl((1R)-2-((2S)-2-(4-(5-(2-((2S)-1-((2R)-2-((methoxycarbonyl)amino)-2-phenylacetyl)-2-pyrrolidinyl)-1H-benzimidazol-5-yl)-1,3-oxazol-2-yl)-1H-benzimidazol-2-yl)-1-pyrrolidinyl)-2-oxo-1-phenylethyl)carbamate] here?
**A.** Its EC50 is under 4.57 nM.

**Q.** For `O=C(C(c1ccccc1)N1CCC(O)CC1)N1CCC[C@H]1c1nc2cc(-c3cnc(-c4cccc5[nH]c([C@@H]6CCCN6C(=O)C(c6ccccc6)N6CCC(O)CC6)nc45)o3)ccc2[nH]1` (stereo partly drawn) [Example J13, 1-(2-((2S)-2-(4-(5-(2-((2S)-1-((4-hydroxy-1-piperidinyl) (phenyl)acetyl)-2-pyrrolidinyl)-1H-benzimidazol-5-yl)-1,3-oxazol-2-yl)-1H-benzimidazol-2-yl)-1-pyrrolidinyl)-2-oxo-1-phenylethyl)-4-piperidinol], which EC50 is on record?
**A.** The EC50 was under 4.57 nM.

**Q.** Which EC50 does the source give for `O=C([C@@H](O)c1ccccc1)N1CCC[C@H]1c1nc2cc(-c3ccc(-c4ccc5[nH]c([C@@H]6CCCN6C(=O)[C@@H](O)c6ccccc6)nc5c4)o3)ccc2[nH]1` [JG3, (1S,1′S)-2,2′-(2,5-furandiylbis(1H-benzimidazole-5,2-diyl(2S)-2,1-pyrrolidinediyl))bis(2-oxo-1-phenylethanol)] here?
**A.** Its EC50 is 4.57 to 99 nM.

**Q.** `COC(=O)N[C@@H](C(=O)N1C2C[C@@H]2C[C@H]1c1nc2cc(-c3ccc(-c4ccc5[nH]c([C@@H]6C[C@H]7CC7N6C(=O)[C@H](NC(=O)OC)c6ccccc6)nc5c4)cc3)ccc2[nH]1)c1ccccc1` (single isomer, unassigned) [Example M46.1] was tested. Which EC50 did it give?
**A.** The EC50 was under 4.57 nM.

**Q.** For `O=C(CC1CC1)N1CCC[C@H]1c1nc2ccc(C#Cc3ccc4[nH]c([C@@H]5CCCN5C(=O)[C@H]5CCCO5)nc4c3)cc2[nH]1` [Example M52, 5-((2-((2S)-1-(cyclopropylacetyl)-2-pyrrolidinyl)-1H-benzimidazol-6-yl)ethynyl)-2-((2S)-1-((2R)-tetrahydro-2-furanylcarbonyl)-2-pyrrolidinyl)-1H-benzimidazole], which EC50 is on record?
**A.** Its EC50 is 4.57 to 99 nM.

**Q.** With `COc1cccc2c(C(=O)N3CCC[C@H]3c3nc4cc(-c5cnc(-c6ccc7nc([C@@H]8CCCN8C(=O)c8nc(Cl)cc9c(OC)cccc89)[nH]c7c6)o5)ccc4[nH]3)nc(Cl)cc12` [Example J22, 3-chloro-1-(((2S)-2-(5-(2-(2-((2S)-1-((3-chloro-5-methoxy-1-isoquinolinyl)carbonyl)-2-pyrrolidinyl)-1H-benzimidazol-6-yl)-1,3-oxazol-5-yl)-1H-benzimidazol-2-yl)-1-pyrrolidinyl)carbonyl)-5-methoxy-isoquinoline] as the compound, how does the EC50 read?
**A.** The EC50 was 1000 to 10000 nM.

**Q.** Which EC50 does the source give for `C[C@@H](C(=O)N1CCC[C@H]1c1nc2cc(C#Cc3ccc4[nH]c([C@@H]5CCCN5C(=O)[C@H](C)c5ccccc5)nc4c3)ccc2[nH]1)c1ccccc1` [Example M1, 5,5′-(1,2-ethynediyl)bis(2-((2S)-1-((2R)-2-phenylpropanoyl)-2-pyrrolidinyl)-1H-benzimidazole)] here?
**A.** Its EC50 is under 4.57 nM.

same assay, conditions: Hepatitis C virus, HCV 1b genotype replicon; numeric values

**Q.** How did the EC50 turn out when `COc1ccc2ccc(C(=O)N3CCC[C@H]3c3nc4cc(C#Cc5ccc6[nH]c([C@@H]7CCCN7C(=O)c7ccc8ccc(OC)cc8n7)nc6c5)ccc4[nH]3)nc2c1` [Example M17, 2,2′-(1,2-ethynediylbis(1H-benzimidazole-5,2-diyl(2S)-2,1-pyrrolidinediylcarbonyl))bis(7-methoxyquinoline)] was run?
**A.** Its EC50 is 20 nM.

**Q.** With `CC(C)(C)OC[C@H](NC(=O)OCc1ccccc1)c1nc2cc(CCc3ccc4nc([C@H](COC(C)(C)C)NC(=O)OCc5ccccc5)[nH]c4c3)ccc2[nH]1` [OL2, benzyl ((1R)-1-(5-(2-(2-((1R)-1-(((benzyloxy)carbonyl)amino)-2-tert-butoxyethyl)-1H-benzimidazol-6-yl)ethyl)-1H-benzimidazol-2-yl)-2-tert-butoxyethyl)carbamate] as the compound, how does the EC50 read?
**A.** Its EC50 is 20 nM.
